In article PMC10141620 (Viruses, 2023):
Entries after “also recorded” stand apart in the source; their conditions may differ. Where two headings read alike, the source gives them in different places.

Experiments:
in vitro [1] = conditions: human
[2] = system: NL4-3ΔEnv-NanoLuc/SARS-CoV-2 (USA-WA1/2020) pseudovirus; experiment: microbe, parasite or virus in culture; type: cell-based
in vitro [3] = conditions: human; remark: listed apart in the source
[4] = system: NL4-3ΔEnvLuc/A-MLV pseudovirus; experiment: microbe, parasite or virus in culture; type: cell-based, amphotropic murine leukemia virus (A-MLV); conditions: 293T/ACE2, read-out: A-MLV IC50
in vitro [5] = conditions: human; remark: listed apart in the source
[6] = system: NL4-3ΔEnv-NanoLuc/MERS-CoV pseudovirus; experiment: microbe, parasite or virus in culture; type: cell-based; conditions: Middle East respiratory syndrome-related coronavirus
in vitro [7] = conditions: human; remark: listed apart in the source
[8] = system: NL4-3ΔEnv-NanoLuc/SARS-CoV-1 pseudovirus; experiment: microbe, parasite or virus in culture; type: cell-based; conditions: Severe acute respiratory syndrome coronavirus
in vitro [9] = conditions: human; remark: listed apart in the source
[10] = system: SARS-CoV-2 spike (Wuhan-Hu-1) mediated cell-to-cell fusion, Jurkat donor / 293T/ACE2 acceptor cells; experiment: microbe, parasite or virus in culture; type: cell-based

Compound	CC50 (in vitro [1]) [µM]	IC50 ([2]; Pseudovirus, 293T/ACE2) [µM]	IC50 ([2]; Pseudovirus, A549-ACE2) [µM]	CC50 (in vitro [3]) [µM]	further results
COc1cc(/C=c2/sc3nc4ccccc4n3c2=O)ccc1OCc1nnn[nH]1 [NBCoV80]	> 50	> 10	> 10	> 50	–
Cc1cc2nc3s/c(=C/c4ccc(-c5ccc(Cl)cc5)o4)c(=O)n3c2cc1C [NBCoV78]	> 50	> 10	8.1 ± 0.2	> 50	–
Cc1cc2nc3s/c(=C\c4ccc(-c5ccc(OC(F)(F)F)cc5)o4)c(=O)n3c2cc1C [NBCoV82]	> 50	> 10	> 10	> 50	–
O=C(O)c1ccc(-c2ccc(/C=c3/sc4nc5ccccc5n4c3=O)o2)cc1Cl [NBCoV75]	> 50	5.2 ± 0.6	3.3 ± 0.7	> 50	–
Cc1ccc2nc3s/c(=C/c4coc(-c5ccc(Cl)c(C(=O)O)c5)c4)c(=O)n3c2c1 [NBCoV35]	~50	0.198 ± 0.009	0.126 ± 0.003	~50	IC50 ([2]; Calu-3, read-out: SARS-CoV-2 USA-WA1/2020 IC50): 0.36 ± 0.035 µM; IC50 ([2]; Pseudovirus, 293T/ACE2, read-out: IC50, range over both cell lines): 0.066 to 0.198 µM; IC50 [4]: 1.82 ± 0.025 µM; CC50 (in vitro [5]): > 50 µM; IC50 ([6]; Caco-2, read-out: MERS-CoV IC50): 0.472 ± 0.043 µM; IC50 ([6]; Calu-3, read-out: MERS-CoV IC50): 1.67 ± 0.225 µM; IC50 ([6]; MRC5, read-out: MERS-CoV IC50): 0.715 ± 0.043 µM; CC50 (in vitro [7]): > 50 µM; IC50 ([8]; 293T/ACE2, read-out: SARS-CoV-1 IC50): 0.38 ± 0.069 µM; IC50 ([8]; A549-ACE2, read-out: SARS-CoV-1 IC50): 0.363 ± 0.011 µM; IC50 ([8]; Calu-3, read-out: SARS-CoV-1 IC50): 1.25 ± 0.045 µM; CC50 (in vitro [9]): > 50 µM; IC50, cell-to-cell fusion inhibition ([10]; 4 h): the least active; IC50 ([10]; Severe acute respiratory syndrome coronavirus 2, 4 h, read-out: IC50, cell-to-cell fusion inhibition): 2.8 µM
Cc1cc2nc3s/c(=C/c4ccc(-c5ccccc5C(=O)O)o4)c(=O)n3c2cc1C [NBCoV81]	> 50	0.387 ± 0.064	0.459 ± 0.023	> 50	–
COc1cc(/C=c2/sc3nc4ccccc4n3c2=O)cc(I)c1OCC(=O)O [NBCoV72]	> 50	> 10	> 10	> 50	–
Cc1ccc(-c2ccc(/C=c3/sc4nc5ccccc5n4c3=O)o2)cc1Cl [NBCoV79]	> 50	> 10	> 10	> 50	–
O=C(O)c1cc(C(=O)O)cc(-c2ccc(/C=c3/sc4nc5ccccc5n4c3=O)o2)c1 [NBCoV76]	> 50	> 10	> 10	> 50	–
O=c1/c(=C/c2ccc(-c3ccccc3)o2)sc2nc3ccccc3n12 [NBCoV66]	> 50	> 10	> 10	> 50	antiviral activity (in words) [2]: no antiviral activity; also recorded: Inactive
O=C(O)c1ccc(-c2ccc(/C=c3/sc4nc5ccccc5n4c3=O)o2)cc1 [NBCoV73]	> 50	> 10	> 10	> 50	–
